{
  "source": "ChEMBL document CHEMBL5058646",
  "about": "(2022)",
  "key": {"[1]": {"target": "Cytoplasmic tyrosine-protein kinase BMX (Homo sapiens) (UniProt P51813)", "sequence (P51813 whole entry)": "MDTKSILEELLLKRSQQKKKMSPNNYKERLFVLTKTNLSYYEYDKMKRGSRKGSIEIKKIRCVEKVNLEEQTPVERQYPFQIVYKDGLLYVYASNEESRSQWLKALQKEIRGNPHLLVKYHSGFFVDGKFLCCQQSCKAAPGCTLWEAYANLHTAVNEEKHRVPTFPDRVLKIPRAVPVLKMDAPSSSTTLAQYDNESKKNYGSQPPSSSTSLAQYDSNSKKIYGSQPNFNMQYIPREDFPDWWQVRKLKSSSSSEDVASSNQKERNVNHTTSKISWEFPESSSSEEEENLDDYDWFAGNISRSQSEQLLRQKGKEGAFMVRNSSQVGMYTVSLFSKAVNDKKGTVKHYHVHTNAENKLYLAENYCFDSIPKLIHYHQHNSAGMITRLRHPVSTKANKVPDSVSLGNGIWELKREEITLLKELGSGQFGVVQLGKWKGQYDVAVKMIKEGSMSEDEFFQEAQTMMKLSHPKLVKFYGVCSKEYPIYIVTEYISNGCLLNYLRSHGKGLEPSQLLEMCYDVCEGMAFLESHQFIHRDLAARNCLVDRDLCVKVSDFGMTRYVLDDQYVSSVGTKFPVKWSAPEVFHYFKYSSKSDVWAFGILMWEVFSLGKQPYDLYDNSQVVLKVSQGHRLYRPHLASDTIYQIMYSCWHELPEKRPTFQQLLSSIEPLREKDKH", "test": "BMX SGC Tm panel (DSF)", "conditions": "Compound concentration 20.0 uM"}, "[2]": {"target": "Vascular endothelial growth factor receptor 1 (Homo sapiens) (UniProt P17948)", "sequence (P17948 whole entry)": "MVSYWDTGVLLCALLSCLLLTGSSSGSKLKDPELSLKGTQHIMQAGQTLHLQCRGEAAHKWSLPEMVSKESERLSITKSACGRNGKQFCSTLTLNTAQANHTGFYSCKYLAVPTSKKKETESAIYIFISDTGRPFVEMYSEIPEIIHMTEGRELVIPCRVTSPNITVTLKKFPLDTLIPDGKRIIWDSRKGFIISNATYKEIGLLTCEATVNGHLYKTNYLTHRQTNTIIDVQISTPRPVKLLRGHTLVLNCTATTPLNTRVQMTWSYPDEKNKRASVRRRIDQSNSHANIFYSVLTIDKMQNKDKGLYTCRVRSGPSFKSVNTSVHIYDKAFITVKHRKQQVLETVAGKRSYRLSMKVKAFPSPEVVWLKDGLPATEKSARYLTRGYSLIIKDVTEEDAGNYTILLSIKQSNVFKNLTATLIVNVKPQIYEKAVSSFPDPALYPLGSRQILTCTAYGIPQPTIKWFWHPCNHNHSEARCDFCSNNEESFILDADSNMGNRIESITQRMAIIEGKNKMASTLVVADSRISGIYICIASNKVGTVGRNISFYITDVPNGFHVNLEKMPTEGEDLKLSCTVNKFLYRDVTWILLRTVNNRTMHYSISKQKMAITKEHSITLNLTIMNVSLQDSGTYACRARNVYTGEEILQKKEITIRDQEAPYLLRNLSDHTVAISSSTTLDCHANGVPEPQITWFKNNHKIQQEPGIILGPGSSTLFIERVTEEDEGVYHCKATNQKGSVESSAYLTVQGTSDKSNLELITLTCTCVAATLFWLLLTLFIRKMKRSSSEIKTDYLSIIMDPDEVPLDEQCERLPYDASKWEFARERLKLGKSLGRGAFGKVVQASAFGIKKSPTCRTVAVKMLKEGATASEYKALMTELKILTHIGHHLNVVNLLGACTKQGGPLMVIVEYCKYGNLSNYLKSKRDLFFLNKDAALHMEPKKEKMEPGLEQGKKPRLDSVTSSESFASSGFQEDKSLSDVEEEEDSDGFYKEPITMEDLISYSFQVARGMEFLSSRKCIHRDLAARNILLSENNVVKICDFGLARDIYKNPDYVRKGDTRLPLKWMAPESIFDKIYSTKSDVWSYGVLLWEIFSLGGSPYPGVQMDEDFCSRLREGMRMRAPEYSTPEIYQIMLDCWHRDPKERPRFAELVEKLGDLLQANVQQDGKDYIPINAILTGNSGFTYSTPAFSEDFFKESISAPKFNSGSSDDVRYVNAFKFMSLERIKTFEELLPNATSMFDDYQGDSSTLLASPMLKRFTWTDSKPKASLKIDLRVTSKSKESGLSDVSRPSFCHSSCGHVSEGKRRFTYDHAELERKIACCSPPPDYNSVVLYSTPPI", "test": "FLT1 SGC Tm panel (DSF)", "conditions": "Compound concentration 20.0 uM"}, "[3]": {"target": "Cyclin-G-associated kinase (Homo sapiens) (UniProt O14976)", "test": "GAK SGC Tm panel (DSF)", "conditions": "Compound concentration 20.0 uM"}, "[4]": {"target": "Dual specificity mitogen-activated protein kinase kinase 6 (Homo sapiens) (UniProt P52564)", "sequence (P52564 whole entry)": "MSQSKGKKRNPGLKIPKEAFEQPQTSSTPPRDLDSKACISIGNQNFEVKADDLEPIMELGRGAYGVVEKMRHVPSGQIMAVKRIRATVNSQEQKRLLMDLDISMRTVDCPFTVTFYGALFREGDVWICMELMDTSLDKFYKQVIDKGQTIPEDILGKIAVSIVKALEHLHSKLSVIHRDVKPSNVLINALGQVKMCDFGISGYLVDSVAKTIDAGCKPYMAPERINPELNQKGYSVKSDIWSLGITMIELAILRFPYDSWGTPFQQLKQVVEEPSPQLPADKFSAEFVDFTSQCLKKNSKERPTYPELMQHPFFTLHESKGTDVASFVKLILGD", "test": "MAP2K6 SGC Tm panel (DSF)", "conditions": "Compound concentration 20.0 uM"}, "[5]": {"target": "Mitogen-activated protein kinase 15 (Homo sapiens) (UniProt Q8TD08)", "sequence (Q8TD08 whole entry)": "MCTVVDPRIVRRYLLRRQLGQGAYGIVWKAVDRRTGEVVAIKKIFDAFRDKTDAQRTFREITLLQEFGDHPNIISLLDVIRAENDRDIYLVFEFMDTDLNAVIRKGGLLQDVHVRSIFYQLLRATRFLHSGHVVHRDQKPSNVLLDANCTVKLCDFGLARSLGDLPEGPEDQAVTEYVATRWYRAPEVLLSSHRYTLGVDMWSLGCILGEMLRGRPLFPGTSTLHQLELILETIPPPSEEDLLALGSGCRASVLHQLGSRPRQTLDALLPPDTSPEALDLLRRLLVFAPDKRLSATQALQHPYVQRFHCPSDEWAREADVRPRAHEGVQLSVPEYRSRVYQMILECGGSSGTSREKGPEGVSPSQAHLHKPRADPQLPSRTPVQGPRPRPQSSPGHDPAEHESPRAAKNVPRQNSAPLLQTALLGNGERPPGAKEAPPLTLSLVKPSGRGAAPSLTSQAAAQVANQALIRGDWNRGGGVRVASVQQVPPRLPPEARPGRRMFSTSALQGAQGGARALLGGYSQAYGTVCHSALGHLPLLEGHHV", "test": "MAPK15 SGC Tm panel (DSF)", "conditions": "Compound concentration 20.0 uM"}, "[6]": {"target": "Mitogen-activated protein kinase 9 (Homo sapiens) (UniProt P45984)", "sequence (P45984 whole entry, looked up)": "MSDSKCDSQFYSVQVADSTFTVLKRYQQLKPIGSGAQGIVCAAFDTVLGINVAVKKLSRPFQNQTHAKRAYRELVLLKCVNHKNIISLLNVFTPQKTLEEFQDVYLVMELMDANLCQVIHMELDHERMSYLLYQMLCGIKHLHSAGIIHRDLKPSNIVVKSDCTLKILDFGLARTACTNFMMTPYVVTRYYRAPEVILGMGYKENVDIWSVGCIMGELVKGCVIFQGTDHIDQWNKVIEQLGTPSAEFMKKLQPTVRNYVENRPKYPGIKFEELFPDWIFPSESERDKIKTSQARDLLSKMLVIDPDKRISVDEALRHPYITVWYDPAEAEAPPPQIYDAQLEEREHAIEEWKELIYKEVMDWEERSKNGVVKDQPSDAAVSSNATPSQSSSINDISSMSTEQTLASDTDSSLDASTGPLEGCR", "test": "MAPK9 SGC Tm panel (DSF)", "conditions": "Compound concentration 20.0 uM"}, "[7]": {"target": "Serine/threonine-protein kinase pim-3 (Homo sapiens) (UniProt Q86V86)", "test": "PIM3 SGC Tm panel (DSF)", "conditions": "Compound concentration 20.0 uM"}, "[8]": {"target": "Alpha-1B adrenergic receptor (Homo sapiens) (UniProt P35368)", "sequence (P35368 whole entry)": "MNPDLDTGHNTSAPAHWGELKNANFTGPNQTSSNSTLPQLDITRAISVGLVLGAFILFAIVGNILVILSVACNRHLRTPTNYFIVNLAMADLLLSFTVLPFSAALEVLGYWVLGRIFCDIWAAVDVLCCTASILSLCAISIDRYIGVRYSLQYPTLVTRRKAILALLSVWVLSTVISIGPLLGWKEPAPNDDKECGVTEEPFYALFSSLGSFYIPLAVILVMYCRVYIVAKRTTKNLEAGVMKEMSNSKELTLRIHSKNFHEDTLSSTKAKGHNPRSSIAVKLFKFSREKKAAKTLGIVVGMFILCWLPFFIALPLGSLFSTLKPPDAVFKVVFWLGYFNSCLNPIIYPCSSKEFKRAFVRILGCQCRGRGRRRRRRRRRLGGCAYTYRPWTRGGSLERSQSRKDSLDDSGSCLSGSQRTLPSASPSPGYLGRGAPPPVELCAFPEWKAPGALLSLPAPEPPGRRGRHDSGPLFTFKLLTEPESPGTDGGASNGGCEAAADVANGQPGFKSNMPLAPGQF", "conditions": "Compound concentration 10.0 uM"}, "[9]": {"target": "Muscarinic acetylcholine receptor M4 (Homo sapiens) (UniProt P08173)", "sequence (P08173 whole entry)": "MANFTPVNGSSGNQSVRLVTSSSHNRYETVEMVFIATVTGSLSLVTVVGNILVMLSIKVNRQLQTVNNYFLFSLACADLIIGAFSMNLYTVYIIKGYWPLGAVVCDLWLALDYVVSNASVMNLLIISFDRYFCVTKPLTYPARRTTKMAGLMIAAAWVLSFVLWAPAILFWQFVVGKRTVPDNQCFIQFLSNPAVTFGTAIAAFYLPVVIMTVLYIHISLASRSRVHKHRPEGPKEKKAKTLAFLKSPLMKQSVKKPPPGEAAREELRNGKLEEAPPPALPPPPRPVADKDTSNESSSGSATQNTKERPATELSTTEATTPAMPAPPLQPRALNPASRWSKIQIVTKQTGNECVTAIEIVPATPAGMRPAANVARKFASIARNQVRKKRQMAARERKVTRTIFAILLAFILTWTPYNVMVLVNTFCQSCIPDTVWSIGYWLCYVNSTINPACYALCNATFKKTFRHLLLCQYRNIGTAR", "conditions": "Compound concentration 10.0 uM"}, "[10]": {"target": "B-cell lymphoma 6 protein (Homo sapiens, UniProt P41182)", "conditions": "SUD4, Compound concentration 1.0 uM"}, "[11]": {"target": "T1, Zinc finger and BTB domain-containing protein 2 (Homo sapiens) (UniProt Q8N680)", "T1 sequence (whole entry)": "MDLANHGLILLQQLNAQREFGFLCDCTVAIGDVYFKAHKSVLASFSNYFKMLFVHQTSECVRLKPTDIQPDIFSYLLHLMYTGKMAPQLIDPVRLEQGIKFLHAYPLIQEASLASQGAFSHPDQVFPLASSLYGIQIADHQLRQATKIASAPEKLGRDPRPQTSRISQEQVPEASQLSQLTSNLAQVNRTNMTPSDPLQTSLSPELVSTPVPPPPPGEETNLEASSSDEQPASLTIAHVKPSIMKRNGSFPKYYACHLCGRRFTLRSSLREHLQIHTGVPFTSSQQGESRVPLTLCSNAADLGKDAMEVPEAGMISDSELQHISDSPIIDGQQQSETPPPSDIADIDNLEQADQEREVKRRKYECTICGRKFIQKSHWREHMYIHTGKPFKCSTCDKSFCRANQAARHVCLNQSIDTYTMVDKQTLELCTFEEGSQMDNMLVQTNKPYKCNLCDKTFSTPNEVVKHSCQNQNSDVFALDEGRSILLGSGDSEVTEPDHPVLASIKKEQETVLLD", "conditions": "SUD4, Compound concentration 1.0 uM"}, "[12]": {"target": "T2, Transcriptional regulator Kaiso (Homo sapiens) (UniProt Q86T24)", "T2 sequence (whole entry)": "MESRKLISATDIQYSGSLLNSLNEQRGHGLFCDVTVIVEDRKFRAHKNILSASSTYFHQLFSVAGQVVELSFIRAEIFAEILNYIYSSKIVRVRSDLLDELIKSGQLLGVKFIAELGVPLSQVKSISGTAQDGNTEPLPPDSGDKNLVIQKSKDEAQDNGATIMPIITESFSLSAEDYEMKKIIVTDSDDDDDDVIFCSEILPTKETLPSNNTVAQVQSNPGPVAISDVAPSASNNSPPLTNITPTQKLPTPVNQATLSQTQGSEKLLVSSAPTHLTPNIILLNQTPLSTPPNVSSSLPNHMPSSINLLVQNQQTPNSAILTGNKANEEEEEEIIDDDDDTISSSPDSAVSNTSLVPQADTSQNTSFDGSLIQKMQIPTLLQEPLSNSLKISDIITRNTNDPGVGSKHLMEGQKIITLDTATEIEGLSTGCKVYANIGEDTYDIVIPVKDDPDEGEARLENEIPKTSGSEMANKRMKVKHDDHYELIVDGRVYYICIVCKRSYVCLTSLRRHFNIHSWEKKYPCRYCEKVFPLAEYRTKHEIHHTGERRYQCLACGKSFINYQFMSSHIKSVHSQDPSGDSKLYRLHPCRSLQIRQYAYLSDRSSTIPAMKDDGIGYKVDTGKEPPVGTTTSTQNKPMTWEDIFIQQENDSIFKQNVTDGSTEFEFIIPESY", "conditions": "SUD4, Compound concentration 1.0 uM"}, "[13]": {"target": "Protein archease (Homo sapiens) (UniProt Q8IWT0)", "sequence (Q8IWT0 whole entry)": "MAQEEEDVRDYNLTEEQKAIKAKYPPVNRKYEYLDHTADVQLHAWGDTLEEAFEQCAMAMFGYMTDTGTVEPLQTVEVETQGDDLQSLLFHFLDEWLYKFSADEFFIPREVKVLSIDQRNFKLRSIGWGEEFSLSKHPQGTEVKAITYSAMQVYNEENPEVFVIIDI", "conditions": "SUD4, Compound concentration 1.0 uM"}, "[14]": {"target": "T3, Zinc finger and BTB domain-containing protein 11 (Homo sapiens) (UniProt O95625)", "T3 sequence (whole entry)": "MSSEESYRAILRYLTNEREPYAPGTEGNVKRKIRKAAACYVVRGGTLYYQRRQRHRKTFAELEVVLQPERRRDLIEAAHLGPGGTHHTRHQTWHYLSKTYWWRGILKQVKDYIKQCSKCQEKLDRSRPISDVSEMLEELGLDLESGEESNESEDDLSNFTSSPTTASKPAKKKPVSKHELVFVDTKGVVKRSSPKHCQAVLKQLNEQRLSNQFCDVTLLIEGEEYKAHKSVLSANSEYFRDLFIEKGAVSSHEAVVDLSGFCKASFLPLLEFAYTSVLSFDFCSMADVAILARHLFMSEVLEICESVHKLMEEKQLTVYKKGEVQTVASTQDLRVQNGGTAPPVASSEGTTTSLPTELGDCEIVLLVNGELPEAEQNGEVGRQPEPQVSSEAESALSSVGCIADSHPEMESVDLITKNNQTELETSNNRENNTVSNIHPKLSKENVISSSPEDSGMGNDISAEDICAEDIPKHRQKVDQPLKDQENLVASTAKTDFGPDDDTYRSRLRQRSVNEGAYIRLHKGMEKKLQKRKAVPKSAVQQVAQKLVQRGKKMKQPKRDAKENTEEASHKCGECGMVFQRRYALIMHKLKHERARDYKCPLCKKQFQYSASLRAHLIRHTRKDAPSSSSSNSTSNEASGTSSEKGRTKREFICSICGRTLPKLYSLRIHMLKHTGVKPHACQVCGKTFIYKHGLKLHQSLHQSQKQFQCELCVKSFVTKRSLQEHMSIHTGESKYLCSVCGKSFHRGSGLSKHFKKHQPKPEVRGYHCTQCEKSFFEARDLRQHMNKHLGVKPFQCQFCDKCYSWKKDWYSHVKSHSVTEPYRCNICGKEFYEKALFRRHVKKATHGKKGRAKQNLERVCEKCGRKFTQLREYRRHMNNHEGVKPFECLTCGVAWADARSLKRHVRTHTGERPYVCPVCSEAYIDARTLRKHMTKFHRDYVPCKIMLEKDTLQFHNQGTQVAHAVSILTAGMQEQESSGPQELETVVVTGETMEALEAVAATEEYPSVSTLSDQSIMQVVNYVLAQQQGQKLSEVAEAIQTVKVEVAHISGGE", "conditions": "OCI-Ly1, Compound concentration 1.0 uM"}},
  "data": [
    {"smiles": "C[C@@H]1CN(c2ncc(Cl)c(Nc3ccc4c(c3)n(CCC(C)(C)O)c(=O)n4C)n2)C[C@H](C)C1(F)F", "values": [
      {"measurement": "Tm", "setting": "[1]", "result": 48, "unit": "°C"},
      {"measurement": "Tm", "setting": "[2]", "result": 45, "unit": "°C"},
      {"measurement": "Tm", "setting": "[3]", "result": 52, "unit": "°C"},
      {"measurement": "Tm", "setting": "[4]", "result": 45, "unit": "°C"},
      {"measurement": "Tm", "setting": "[5]", "result": 50, "unit": "°C"},
      {"measurement": "Tm", "setting": "[6]", "result": 54, "unit": "°C"},
      {"measurement": "Tm", "setting": "[7]", "result": 40, "unit": "°C"},
      {"measurement": "inhibition", "setting": "[8]", "result": 12.4, "unit": "%"},
      {"measurement": "inhibition", "setting": "[9]", "result": -2.86, "unit": "%"},
      {"measurement": "LogFC", "setting": "[10]", "result": -1.2},
      {"measurement": "LogFC", "setting": "[11]", "result": 0.029},
      {"measurement": "LogFC", "setting": "[12]", "result": 0.0744},
      {"measurement": "LogFC", "setting": "[13]", "result": 0.0264},
      {"measurement": "LogFC", "setting": "[14]", "result": -0.00672}
    ]}
  ]
}
